In patent US20230059136A1, “THE COMPOUNDS AND COMPOSITIONS FOR TREATING CONDITIONS ASSOCIATED WITH NLRP ACTIVITY” (Novartis AG, priority 2018, published 2023) one finds IC50 data, which are given here for 20 compounds.

The subject of this assay is IL-1β production in PMA-differentiated THP-1 cells. Briefly: IL-1β production in PMA-differentiated THP-1 cells stimulated with gramicidin (hTHP-1 assay containing 2% fetal bovine serum). The class given is cell-based, human. To be noted: 2% fetal bovine serum, read-out: hTHP-1 IC50 (Average IC50 of compounds in hTHP-1 assay). In a few lines:
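IL-1β release was read by HTRF on supernatants of 50,000 PMA-primed (20 ng/ml, 16-18 h) THP-1 cells/well in 2% FBS medium. Cells saw compound for 1 h (11-point titration from 100 μM, 0.37% DMSO) before a 2 h gramicidin (5 μM) challenge.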

[1] abbreviates: Homo sapiens, THP-1, Table B1, cells printed as numeric bound.
[2] abbreviates: Homo sapiens, THP-1, Table B1, class symbols.
Where [3] appears, read: Homo sapiens, THP-1, Table B2, class symbols.

As a reminder, the IC50 is the point on the concentration scale where inhibition reaches its midpoint.

Read-outs that look alike come from different tables or passages of the source.

In the case of `CC(C)c1cc2c(c(C(C)C)c1CC(=O)N=S(N)(=O)c1sc(C(C)(C)O)cc1F)COC2` (single isomer, unassigned) [Example 322, (S) or (R)-N-(amino (3-fluoro-5-(2-hydroxypropan-2-yl)thiophen-2-yl)(oxo)-λ^6-sulfaneylidene)-2-(4,6-diisopropyl-1,3-dihydroisobenzofuran-5-yl)acetamide], the 50% inhibitory concentration (IC50) (Table B1, class symbols) fell in the range of 5000 to 30000 nM.

With `CNCc1ccc(S(N)(=O)=NC(=O)Cc2c(C(C)C)cc(C(F)F)nc2C(C)C)cc1` (single isomer, unassigned) [Example 323, (S) or (R)-N-(amino(4-((methylamino)methyl)phenyl)(oxo)-λ^6-sulfaneylidene)-2-(6-(difluoromethyl)-2,4-diisopropylpyridin-3-yl)acetamide], the IC50 under setting [1] was above 30000 nM.

`CNCc1ccc(S(N)(=O)=NC(=O)Cc2c(C(C)C)cc(C(F)F)nc2C(C)C)cc1` (single isomer, unassigned) [Example 324, (R) or (S)-N-(amino (4-((methylamino)methyl)phenyl)(oxo)-λ^6-sulfaneylidene)-2-(6-(difluoromethyl)-2,4-diisopropylpyridin-3-yl)acetamide]: the 50% inhibitory concentration (IC50) under setting [2] fell in the range of 5000 to 30000 nM.

Consider `CC(C)c1cc(C(F)F)cc(C(C)C)c1CC(=O)N=S(N)(=O)c1ccc(CN(C)C)cc1` (single isomer, unassigned) [Example 325, (R) or (S)-N-(amino (4-((dimethylamino)methyl)phenyl)(oxo)-λ6-sulfaneylidene)-2-(4-(difluoromethyl)-2,6-diisopropylphenyl) acetamide], for which the IC50 (Table B1, class symbols) was 200 to 1000 nM.

Take `CC(C)c1cc(C(F)F)cc(C(C)C)c1CC(=O)N=S(N)(=O)c1ccc(CN(C)C)cc1` (single isomer, unassigned) [Example 326, (S) or (R)-N-(amino(4-((dimethylamino)methyl)phenyl)(oxo)-λ^6-sulfaneylidene)-2-(4-(difluoromethyl)-2,6-diisopropylphenyl) acetamide]: the half-maximal inhibitory concentration (IC50) (Table B1, class symbols) lay in the range of 5000 to 30000 nM.

On to `CC(C)c1cc(C(F)F)cc(C(C)C)c1CC(=O)N=S(N)(=O)c1ccc(CN(C)C)nc1` (single isomer, unassigned) [Example 327, (S) or (R)-N-(amino(6-((dimethylamino)methyl)pyridin-3-yl)(oxo)-λ^6-sulfaneylidene)-2-(4-(difluoromethyl)-2,6-diisopropylphenyl) acetamide], for which, under setting [1], the half-inhibitory concentration (IC50) is above 30000 nM.

Consider `CC(C)c1cc(C(F)F)cc(C(C)C)c1CC(=O)N=S(N)(=O)c1ccc(CN(C)C)nc1` (single isomer, unassigned) [Example 328, (R) or (S)-N-(amino(6-((dimethylamino)methyl)pyridin-3-yl)(oxo)-λ^6-sulfaneylidene)-2-(4-(difluoromethyl)-2,6-diisopropylphenyl) acetamide], for which the half-maximal inhibitory concentration (IC50) under setting [2] fell in the range of 1000 to 5000 nM.

Regarding `CNCc1ccc(S(N)(=O)=NC(=O)Cc2c(C(C)C)cc(C(F)F)cc2C(C)C)cc1` (single isomer, unassigned) [Example 329, (S) or (R)-N-(amino(4-((methylamino)methyl)phenyl)(oxo)-λ^6-sulfaneylidene)-2-(4-(difluoromethyl)-2,6-diisopropylphenyl) acetamide], the IC50 under setting [1] was above 30000 nM.

Consider `CNCc1ccc(S(N)(=O)=NC(=O)Cc2c(C(C)C)cc(C(F)F)cc2C(C)C)cc1` (single isomer, unassigned) [Example 330, (R) or (S)-N-(amino(4-((methylamino)methyl)phenyl)(oxo)-λ^6-sulfaneylidene)-2-(4-(difluoromethyl)-2,6-diisopropylphenyl) acetamide], for which the half-inhibitory concentration (IC50) under setting [2] fell in the range of 1000 to 5000 nM.

On to `CC(C)c1cc(C(F)F)nc(C(C)C)c1CC(=O)N=S(N)(=O)c1ccc(CN(C)C)cc1` (single isomer, unassigned) [Example 331, (R) or (S)-N-(amino(4-((dimethylamino)methyl)phenyl)(oxo)-λ^6-sulfaneylidene)-2-(6-(difluoromethyl)-2,4-diisopropylpyridin-3-yl)acetamide], for which the IC50 under setting [2] was in the range of 1000 to 5000 nM.

Regarding `CC(C)c1cc(C(F)F)nc(C(C)C)c1CC(=O)N=S(N)(=O)c1ccc(CN(C)C)cc1` (single isomer, unassigned) [Example 332, (S) or (R)-N-(amino(4-((dimethylamino)methyl)phenyl)(oxo)-λ^6-sulfaneylidene)-2-(6-(difluoromethyl)-2,4-diisopropylpyridin-3-yl)acetamide], the concentration for half-maximal inhibition (IC50) under setting [1] is above 30000 nM.

For `CC(C)c1cc(C#N)c(F)c(C(C)C)c1CC(=O)N=S(N)(=O)c1cnc(C(C)(O)CO)s1` (single isomer, unassigned) [Example 333], where the note is “Table B1, class symbols”, the concentration for half-maximal inhibition (IC50) was in the range of 40 to 200 nM.

For `CC(C)c1cc(C#N)c(F)c(C(C)C)c1CC(=O)N=S(N)(=O)c1cnc(C(C)(O)CO)s1` (single isomer, unassigned) [Example 334, (S, S) or (R, S)-N-(amino(2-(1,2-dihydroxypropan-2-yl)thiazol-5-yl)(oxo)-λ^6-sulfaneylidene)-2-(4-cyano-3-fluoro-2,6-diisopropylphenyl) acetamide], the IC50 (Table B1, class symbols) was 5000 to 30000 nM.

With `CC(C)c1cc(C#N)c(F)c(C(C)C)c1CC(=O)N=S(N)(=O)c1cnc(C(C)(O)CO)s1` (single isomer, unassigned) [Example 335, (R, S) or (S, S)-N-(amino(2-(1,2-dihydroxypropan-2-yl)thiazol-5-yl)(oxo)-λ^6-sulfaneylidene)-2-(4-cyano-3-fluoro-2,6-diisopropylphenyl) acetamide], under setting [1], the half-maximal inhibitory concentration (IC50) was above 30000 nM.

On to `CC(C)c1cc(C#N)c(F)c(C(C)C)c1CC(=O)N=S(N)(=O)c1cnc(C(C)(O)CO)s1` (single isomer, unassigned) [Example 336, (R, R) or (S, R)-N-(amino(2-(1,2-dihydroxypropan-2-yl)thiazol-5-yl)(oxo)-λ^6-sulfaneylidene)-2-(4-cyano-3-fluoro-2,6-diisopropylphenyl) acetamide], for which the IC50 (Table B1, class symbols) fell in the range of 200 to 1000 nM.

For `CC(C)c1cc(C#N)c(F)c(C(C)C)c1CC(=O)N=S(N)(=O)c1cnc(C(C)(O)CO)s1` (single isomer, unassigned) [Example 337, (S, R) or (R, R)-N-(amino(2-(1,2-dihydroxypropan-2-yl)thiazol-5-yl)(oxo)-λ^6-sulfaneylidene)-2-(4-cyano-3-fluoro-2,6-diisopropylphenyl) acetamide], the half-inhibitory concentration (IC50) (Table B1, class symbols) is 8 to 40 nM.

As for `CC(C)c1cc2c(c(C(C)C)c1CC(=O)N=S(N)(=O)c1cnc(C(C)(O)CO)s1)COC2` (single isomer, unassigned) [Example 338], the IC50 under setting [2] was in the range of 200 to 1000 nM.

`CC(C)c1cc2c(c(C(C)C)c1CC(=O)N=S(N)(=O)c1cnc(C(C)(O)CO)s1)COC2` (single isomer, unassigned) [Example 339, (R, S) or (S, S)-N-(amino(2-(1,2-dihydroxypropan-2-yl)thiazol-5-yl)(oxo)-λ^6-sulfaneylidene)-2-(4,6-diisopropyl-1,3-dihydroisobenzofuran-5-yl)acetamide]: the concentration for half-maximal inhibition (IC50) under setting [1] is above 30000 nM.

Turning to `COc1cc(-c2cccc(C(C)C)c2CC(=O)N=S(N)(=O)c2cnc(C(C)(O)CO)s2)ccn1` (single isomer, unassigned) [Example 351, N-(amino(2-((S or R)-1,2-dihydroxypropan-2-yl)thiazol-5-yl)(oxo)-λ^6-sulfaneylidene)-2-(2-isopropyl-6-(2-methoxypyridin-4-yl)phenyl)acetamide], the IC50 under setting [3] was in the range of 200 to 1000 nM.

As for `CC(C)c1cc(C#N)cc(C(C)C)c1CC(=O)N=S(=O)(NC#N)c1sc(C(C)(C)O)nc1CO` (single isomer, unassigned) [Example 358], the 50% inhibitory concentration (IC50) under setting [3] is 40 to 200 nM.
